Experimental data published in patent publication US20250213647A1, “CHEMOKINE RECEPTORS AND ALPHA1 ADRENERGIC RECEPTORS/VASOPRESSIN RECEPTORS 1A HETEROMERS AS DRUG TARGETS FOR DISEASE” (UNIVERSITY OF SOUTH FLORIDA, priority 2022, published 2025).

Experiments:
CCR2 [1] = target: T1, CCR2 (Homo sapiens, UniProt P41597); test: BRET assay for β-arrestin recruitment, HEK293T with CCR2-Rluc and β-arrestin-YFP without α1b-AR; format: cell-based; settings: 10 μM PE, PT or 100 nM INCB3284, FIG. 5C
Protocol: β-arrestin recruitment was measured by BRET, as described (Armando, 2014; Berchiche, 2011). In brief, HEK293T cells were plated in a 6-well plate and transfected with 0.1 μg of CCR2-RluII and 1.9 μg β-arrestin-YFP with 0.1 μg pcDNA3.1 or α1b-AR. One day after transfection, cells were re-plated into 96-well poly-L lysine precoated plates. After overnight incubation, cells were replaced with 0.1% glucose/PBS. Coelenterazine H in a final concentration of 5 μM was added to cells and incubated at room temperature for 3 min. […] The BRET changes were calculated by subtracting the BRET signal of untreated cells.

CCR2 [2] = target: T1, CCR2; test: Chemotaxis assay, THP-1 cells toward CCL2 (CCR2-mediated); format: cell-based; parameters: host or cells: THP-1; settings: CCL2 10 nM
Protocol: (§1) Cell migration was measured employing the Neuroprobe (Gaithersburg, MD, USA) ChemoTx® Disposable Chemotaxis System. A 96-well Boyden-chamber (30 μL/well, 8 μm pores, 1×10^5 pores/cm^2 pore density) was selected for all chemotaxis experiments. Bottom wells of the Boyden-chamber were loaded with 30 μL of test substances at various concentrations. Top wells of the membrane were loaded with 25 μL of THP-1 cells, THP-1_ADRA1B^KO, wild type THP-1 cells after clonal expansion (=control for THP-1_ADRA1B^KO) or freshly isolated monocytes (200 cells/μL). THP-1 cells were suspended in depleted RPMI1640 (0.5% HyClone™ fetal bovine serum, Sigma); Freshly isolated monocytes were suspended in RPMI1640 (0.5% human platelet poor plasma, Sigma). After 3 hours, transmigrated cells were counted utilizing the Cytation 1 plate reader (BioTek) by direct imaging in high contrast bright field (4×) and post-imaging particle analyses with Gen5 (v3.05) Imaging & Microscopy Software (BioTek). The chemotactic index (CI) was calculated as the ratio of cells that transmigrated in the presence versus the absence of the test solutions.

[3] = system: AVPR1A heteromerization partners CCR2, CCR8 and CXCR4; test: Chemotaxis assay, THP-1 cells, AVPR1A heteromerization partners CCR2, CCR8 and CXCR4; format: cell-based; settings: Homo sapiens, FIG. 13A, 13C, read-out: IC50, inhibition of chemotaxis mediated via CCR2, CCR8 and CXCR4
CXCR4 [4] = settings: previous observations (Gao, 2018); cited from earlier work
CXCR4 [5] = test: Chemotaxis assay, THP-1 cells toward CXCL12 (CXCR4-mediated); format: cell-based, human; settings: CXCL12 100 nM, mean±SE, read-out: IC50 for inhibition of CXCR4-mediated chemotaxis
Protocol: as §1

CCR1 = test: Chemotaxis assay, THP-1 cells toward CCL23 (CCR1-mediated); format: cell-based, human; settings: CCL23 10 nM, mean±SE, read-out: IC50 for inhibition of CCR1-mediated chemotaxis
Protocol: as §1

T1 sequence (P41597 whole entry): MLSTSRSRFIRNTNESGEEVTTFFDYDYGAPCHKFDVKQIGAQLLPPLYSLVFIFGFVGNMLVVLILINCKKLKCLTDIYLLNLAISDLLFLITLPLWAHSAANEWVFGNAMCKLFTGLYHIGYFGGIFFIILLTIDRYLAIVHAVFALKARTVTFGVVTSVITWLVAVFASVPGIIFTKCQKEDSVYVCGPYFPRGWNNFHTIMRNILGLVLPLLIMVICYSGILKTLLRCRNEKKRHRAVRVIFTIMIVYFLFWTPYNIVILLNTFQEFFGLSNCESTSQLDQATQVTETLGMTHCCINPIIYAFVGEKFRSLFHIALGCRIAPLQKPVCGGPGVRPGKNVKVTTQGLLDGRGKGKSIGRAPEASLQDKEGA

With `COc1ccc(C2(O)CCC(N3CC[C@@H](NC(=O)CNC(=O)c4cccc(C(F)(F)F)c4)C3)CC2)cn1` (some centres unmarked) [INCB3284] the “effect on the CCL2-induced BRET signal (CCR2-Rluc / β-arrestin-YFP)” value (CCR2 [1]) was “could be inhibited” and the “inhibition of CCL2-induced chemotaxis” value (CCR2 [2]; FIG. 23E) was “more than 95%”.
For `Cc1nc2c([nH]1)-c1ccccc1N(C(=O)c1ccc(NC(=O)c3ccccc3-c3ccccc3)cc1)CC2` [Conivaptan], the IC50 [3] was 0.037 to 0.218 nM.
For `COc1cc2nc(N3CCN(C(=O)c4ccco4)[C@H]4CCCC[C@H]43)nc(N)c2cc1OC` (racemic) [cyclazosin], the “CXCR4-mediated chemotaxis of primary human vascular smooth muscle cells” value (CXCR4 [4]) is listed as “inhibit”.
For `COc1cc2nc(N3CCN(C(=O)c4ccco4)CC3)nc(N)c2cc1OC` [prazosin], the “CXCR4-mediated chemotaxis of primary human vascular smooth muscle cells” value (CXCR4 [4]) is listed as “inhibit”.
`COc1ccccc1N1CCN(CCN2C(=O)CC3(CCCC3)CC2=O)CC1` [BMY7378] gave an IC50 (CXCR4 [5]) of 2.87 ± 0.6 nM, an IC50 (CCR1) of 10.5 ± 0.91 nM and an IC50 (CCR2 [2]; mean±SE, read-out: IC50 for inhibition of CCR2-mediated chemotaxis) of 0.93 ± 0.61 nM.
